Reference: PubChem BioAssay AID2060488 (Molecular Pharmacology Branch, DTP, NCI, 2025)

Test system: 966289-007-R4-J1-PDC complex spheroid viability
Test: Anticancer human tumor 966289-007-R4-J1-PDC patient-derived pancreatic adenocarcinoma cell line growth inhibition [GQUAD]
Conditions: for IC50: curve of first compound; for viability, T/C: stronger effect = lower value
In short: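 Viability of tumor cells grown as complex spheroids with endothelial and stromal cells, exposed to drug combinations. Top concentration at or near clinical Cmax (else 10 microM), diluted in half-log increments.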

[1] = second compound 0.0316 µM, first compound 0.000999 µM
[2] = second compound 0.0316 µM, first compound 0.00316 µM
[3] = second compound 0.0316 µM, first compound 0.00999 µM
[4] = second compound 0.0316 µM, first compound 0.0316 µM
[5] = second compound 0.0316 µM, first compound 0.0999 µM
[6] = second compound 0.0316 µM, first compound 0.316 µM
[7] = second compound 0.1 µM, first compound 0.000999 µM
[8] = second compound 0.1 µM, first compound 0.00316 µM
[9] = second compound 0.1 µM, first compound 0.00999 µM
[10] = second compound 0.1 µM, first compound 0.0316 µM
[11] = second compound 0.1 µM, first compound 0.0999 µM
[12] = second compound 0.1 µM, first compound 0.316 µM
[13] = second compound 0.316 µM, first compound 0.000999 µM
[14] = second compound 0.316 µM, first compound 0.00316 µM
[15] = second compound 0.316 µM, first compound 0.00999 µM
[16] = second compound 0.316 µM, first compound 0.0316 µM
[17] = second compound 0.316 µM, first compound 0.0999 µM
[18] = second compound 0.316 µM, first compound 0.316 µM
[19] = second compound 1 µM, first compound 0.000999 µM
[20] = second compound 1 µM, first compound 0.00316 µM
[21] = second compound 1 µM, first compound 0.00999 µM
[22] = second compound 1 µM, first compound 0.0316 µM
[23] = second compound 1 µM, first compound 0.0999 µM
[24] = second compound 1 µM, first compound 0.316 µM
[25] = second compound 3.16 µM, first compound 0.000999 µM
[26] = second compound 3.16 µM, first compound 0.00316 µM
[27] = second compound 3.16 µM, first compound 0.00999 µM
[28] = second compound 3.16 µM, first compound 0.0316 µM
[29] = second compound 3.16 µM, first compound 0.0999 µM
[30] = second compound 3.16 µM, first compound 0.316 µM
[31] = second compound 10 µM, first compound 0.000999 µM
[32] = second compound 10 µM, first compound 0.00316 µM
[33] = second compound 10 µM, first compound 0.00999 µM
[34] = second compound 10 µM, first compound 0.0316 µM
[35] = second compound 10 µM, first compound 0.0999 µM
[36] = second compound 10 µM, first compound 0.316 µM
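Further: spheroids exposed to the agents for seven days before readout.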
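Wherever viability, T/C is given: percent viability relative to DMSO vehicle control wells taken as 100%.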

Structure (SMILES): CCc1c2c(nc3ccc(O)cc13)-c1cc3c(c(=O)n1C2)COC(=O)[C@]3(O)CC + CN(C)c1ccc(Nc2c3ccc(NC(=O)CCN4CCCC4)cc3nc3cc(NC(=O)CCN4CCCC4)ccc23)cc1
- IC50 (second compound 0.0316 µM): < 0.999 nM
- IC50 (second compound 0.1 µM): < 0.999 nM
- IC50 (second compound 0.316 µM): < 0.999 nM
- IC50 (second compound 1 µM): < 0.999 nM
- IC50 (second compound 3.16 µM): < 0.999 nM
- IC50 (second compound 10 µM): < 0.999 nM
- viability, T/C [1]: 21.2%
- viability, T/C [2]: 1.29%
- viability, T/C [3]: 0.59%
- viability, T/C [4]: 0.58%
- viability, T/C [5]: 0.44%
- viability, T/C [6]: 0.43%
- viability, T/C [7]: 22.3%
- viability, T/C [8]: 1.11%
- viability, T/C [9]: 0.72%
- viability, T/C [10]: 1.03%
- viability, T/C [11]: 0.43%
- viability, T/C [12]: 0.56%
- viability, T/C [13]: 18.6%
- viability, T/C [14]: 1.04%
- viability, T/C [15]: 1.15%
- viability, T/C [16]: 0.5%
- viability, T/C [17]: 0.36%
- viability, T/C [18]: 0.44%
- viability, T/C [19]: 22.2%
- viability, T/C [20]: 1.12%
- viability, T/C [21]: 0.68%
- viability, T/C [22]: 0.53%
- viability, T/C [23]: 1.55%
- viability, T/C [24]: 0.4%
- viability, T/C [25]: 17.7%
- viability, T/C [26]: 1.42%
- viability, T/C [27]: 0.73%
- viability, T/C [28]: 0.58%
- viability, T/C [29]: 0.38%
- viability, T/C [30]: 0.97%
- viability, T/C [31]: 9.4%
- viability, T/C [32]: 0.87%
- viability, T/C [33]: 0.74%
- viability, T/C [34]: 0.39%
- viability, T/C [35]: 0.62%
- viability, T/C [36]: 0.22%

Structure (SMILES): CC(C)(O)C1CCC(Nc2ccc3ncc(-c4cccc(C(F)(F)F)c4)n3n2)CC1 (stereo unspecified) + CN(C)c1ccc(Nc2c3ccc(NC(=O)CCN4CCCC4)cc3nc3cc(NC(=O)CCN4CCCC4)ccc23)cc1
- IC50 (second compound 0.0316 µM): > 10000 nM
- IC50 (second compound 0.1 µM): 2940 nM
- IC50 (second compound 0.316 µM): 3080 nM
- IC50 (second compound 1 µM): 2090 nM
- IC50 (second compound 3.16 µM): 1830 nM
- IC50 (second compound 10 µM): 668 nM
- viability, T/C [4]: 108%
- viability, T/C (second compound 0.0316 µM, first compound 0.1 µM): 102%
- viability, T/C [6]: 101%
- viability, T/C (second compound 0.0316 µM, first compound 1 µM): 95.3%
- viability, T/C (second compound 0.0316 µM, first compound 3.16 µM): 53.1%
- viability, T/C (second compound 0.0316 µM, first compound 10 µM): 57.9%
- viability, T/C [10]: 109%
- viability, T/C (second compound 0.1 µM, first compound 0.1 µM): 101%
- viability, T/C [12]: 98.1%
- viability, T/C (second compound 0.1 µM, first compound 1 µM): 103%
- viability, T/C (second compound 0.1 µM, first compound 3.16 µM): 39.4%
- viability, T/C (second compound 0.1 µM, first compound 10 µM): 53.4%
- viability, T/C [16]: 97.7%
- viability, T/C (second compound 0.316 µM, first compound 0.1 µM): 100%
- viability, T/C [18]: 95.8%
- viability, T/C (second compound 0.316 µM, first compound 1 µM): 110%
- viability, T/C (second compound 0.316 µM, first compound 3.16 µM): 43.9%
- viability, T/C (second compound 0.316 µM, first compound 10 µM): 53.8%
- viability, T/C [22]: 95.1%
- viability, T/C (second compound 1 µM, first compound 0.1 µM): 103%
- viability, T/C [24]: 102%
- viability, T/C (second compound 1 µM, first compound 1 µM): 97.5%
- viability, T/C (second compound 1 µM, first compound 3.16 µM): 18.3%
- viability, T/C (second compound 1 µM, first compound 10 µM): 28.3%
- viability, T/C [28]: 103%
- viability, T/C (second compound 3.16 µM, first compound 0.1 µM): 98.7%
- viability, T/C [30]: 100%
- viability, T/C (second compound 3.16 µM, first compound 1 µM): 106%
- viability, T/C (second compound 3.16 µM, first compound 3.16 µM): 2.64%
- viability, T/C (second compound 3.16 µM, first compound 10 µM): 1.96%
- viability, T/C [34]: 103%
- viability, T/C (second compound 10 µM, first compound 0.1 µM): 104%
- viability, T/C [36]: 104%
- viability, T/C (second compound 10 µM, first compound 1 µM): 20.9%
- viability, T/C (second compound 10 µM, first compound 3.16 µM): 0.21%
- viability, T/C (second compound 10 µM, first compound 10 µM): 0.8%

Structure (SMILES): CC[C@@]1(O)C(=O)OCc2c1cc1n(c2=O)Cc2cc3c(CN(C)C)c(O)ccc3nc2-1 + Cc1cnc(CNC(=O)c2c(=O)c3ccc(N4CCCN(C)CC4)nc3n3c2sc2ccccc23)cn1
- IC50 (second compound 0.0316 µM): 14.7 nM
- IC50 (second compound 0.1 µM): < 0.999 nM
- IC50 (second compound 0.316 µM): < 0.999 nM
- IC50 (second compound 1 µM): < 0.999 nM
- IC50 (second compound 3.16 µM): < 0.999 nM
- IC50 (second compound 10 µM): < 0.999 nM
- viability, T/C [1]: 114%
- viability, T/C [2]: 101%
- viability, T/C [3]: 70.2%
- viability, T/C [4]: 11%
- viability, T/C [5]: 0.58%
- viability, T/C [6]: 0.79%
- viability, T/C [7]: 37.3%
- viability, T/C [8]: 28.6%
- viability, T/C [9]: 16.8%
- viability, T/C [10]: 3.15%
- viability, T/C [11]: 0.77%
- viability, T/C [12]: 0.75%
- viability, T/C [13]: 9.34%
- viability, T/C [14]: 13.5%
- viability, T/C [15]: 8.56%
- viability, T/C [16]: 2.61%
- viability, T/C [17]: 0.93%
- viability, T/C [18]: 0.49%
- viability, T/C [19]: 5.94%
- viability, T/C [20]: 5.56%
- viability, T/C [21]: 4.48%
- viability, T/C [22]: 1.71%
- viability, T/C [23]: 0.92%
- viability, T/C [24]: 0.68%
- viability, T/C [25]: 3.9%
- viability, T/C [26]: 3.89%
- viability, T/C [27]: 3.05%
- viability, T/C [28]: 0.13%
- viability, T/C [29]: 0.08%
- viability, T/C [30]: 0.07%
- viability, T/C [31]: 0.03%
- viability, T/C [32]: 0.08%
- viability, T/C [33]: 0.12%
- viability, T/C [34]: 0.09%
- viability, T/C [35]: 0.3%
- viability, T/C [36]: 0.11%
